Patent publication US7186879B2, “Screening systems and methods for identifying modulators of xenobiotic metabolism” (Baylor College of Medicine, priority 2001, dated 2007)

Tests used:
hepatic GSH = test: Hepatic GSH content (non-protein thiol); type: in vivo, mouse; conditions: for hepatic GSH levels versus vehicle CAR (+/+) and pretreated CAR (−/−) animals: pretreated wild-type animals, two hours after APAP; for decrease in hepatic GSH: pretreated wild-type mice, two hours after APAP 250 mg/kg
Experimental: (§1) CAR (+/+) or CAR (−/−) animals pretreated with phenobarbital (PB), TCPOBOP (TC), or vehicle alone were administered a 250 mg/kg dose of APAP by intraperitoneal injection (n=5–7 per treatment group) (FIG. 11A). Serum was collected and alanine aminotransferase (ALT) levels were measured after 24 hours. Liver sections from different treatments were examined by histological staining (FIG. 11B). Liver samples from all treated animals were analyzed but only representative histology is presented. […] CAR (+/+) or CAR (−/−) animals were pretreated with PB, TCPOBOP (TC), or vehicle alone for three days (FIG. 11C). […] Liver samples treated as indicated were collected two hours after APAP and GSH levels were measured (n=5–7) (FIG. 11D).
FIG. 15A is a picture of the histological staining of liver sections after two hours of 500 mg/kg APAP treatment. Liver sections from animals injected with 500 mg/kg APAP for 0 or 2 hours were stained with hematoxylin and eosin. Arrows indicate initial stages of necrosis surrounding central veins. The same liver samples were collected and GSH levels were measured at 0 and 2 hours as indicated. FIG. 15B is a graph of these GSH levels.
(§2) For histologic examination of the treated mice, the left lobe of the livers was removed and immediately fixed in 4% formaldehyde-PBS solution, embedded in paraffin, sectioned at 5 μm, and stained with hematoxylin and eosin. Samples were examined under a light microscope. For RNA studies, total RNA was extracted using TRIzol Reagent (Invitrogen Life Technologies, Carlsbad, Calif.) according to the manufacture's instruction. Equivalent amount of RNA from 3–5 mice were pooled and 10 μg of each sample was subjected to northern blot analysis. […] Preparation of probes for CYP2B10 and CYP3A11 were described as previously (Wei et al., Nature 407:920–923, 2000 and Zelko et al., Mol Cell Biol 21:2838–2846, 2001). PCR primers used were: CYP1A2: 5′-[…]-3′ (SEQ ID NO: 19) and 5′-[…]-3′ (SEQ ID NO: 20), CYP2E1: 5′-[…]-3′ (SEQ ID NO: 21) and 5′-[…]-3′ (SEQ ID NO: 22), GSTPi: 5′-[…]-3′ (SEQ ID NO: 23) and 5′-[…]-3′ (SEQ ID NO: 24). Hepatic non-protein thiol was measured as an indication of hepatic GSH content. Mice were sacrificed two hours after intraperitoneal injection with APAP. Livers were removed and immediately homogenized in four volumes of 5% trichloroacetic acid and then centrifuged at 1,600×g for 15 minutes. Supernatant (0.5 ml) was mixed with 1.5 ml 0.1 mM Ellman's reagent [5,5′-dithio-bis(2-nitrobenzoic acid)] (Sigma, St Louis, Mo.) and allowed to stand at room temperature for 15 minutes. Absorbance was read at 412 nm using GSH solutions as quantitative standards.

murine CAR [1] = biological target: T1, murine CAR (Mus musculus, UniProt O35627); conditions: mice expressing only murine CAR (heterozygous, no transgene), 24 hours
T1 sequence (O35627 1-358): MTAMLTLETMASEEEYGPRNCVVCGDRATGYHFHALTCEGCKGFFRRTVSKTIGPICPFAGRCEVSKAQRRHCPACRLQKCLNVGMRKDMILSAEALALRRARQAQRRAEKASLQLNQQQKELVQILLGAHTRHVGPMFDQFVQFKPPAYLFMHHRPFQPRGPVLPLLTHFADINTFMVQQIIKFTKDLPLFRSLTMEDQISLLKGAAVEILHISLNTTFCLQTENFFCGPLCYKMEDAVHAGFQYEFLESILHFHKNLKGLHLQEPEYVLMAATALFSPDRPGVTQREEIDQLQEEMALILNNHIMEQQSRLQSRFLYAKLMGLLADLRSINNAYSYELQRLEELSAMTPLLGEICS
Experimental: (§3) Total RNA was prepared from the livers of the individual mice, and CYP2B10 mRNA expression was assessed by Northern blotting.
(§4) Mice heterozygous for the murine CAR gene mutation and lacking the human CAR transgene express only murine CAR. […] Mice homozygous for the murine CAR gene mutation and carrying the human CAR transgene express only human CAR in the liver.

murine CAR [2] = conditions: no functional CAR (homozygous mutation, no transgene), 24 hours
Experimental: as §3, §4

CYP enzyme activity = test: Zoxazolamine paralysis test; conditions: for effect of pretreatment on paralysis: CAR −/− mice; for duration of zoxazolamine-induced paralysis: 3-day pretreatment, zoxazolamine 300 mg/kg i.p.; for animals that died: female CAR −/− mice after zoxazolamine; for effect of pretreatment on duration of paralysis: wild-type animals
Experimental: In these experiments, mice were pretreated for three days with PB or TCPOBOP, after which time they were given a single intraperitoneal injection of zoxazolamine (300 mg/kg). Paralysis time was recorded as the time when the mice were able to right themselves repeatedly.

[3] = test system: wild-type and CAR −/− mice; test: Cocaine-mediated hepatotoxicity, serum ALT; conditions: for evidence of liver damage after cocaine: CAR −/− animals; for serum ALT as acute response to cocaine: male wild-type mice pretreated three days, cocaine 30 mg/kg
Experimental: FIG. 4 is a bar graph showing the effect of PB or TCPOBOP on cocaine-mediated hepatotoxicity, measured as serum alanine aminotransferase (ALT) activity. Male mice were pretreated with PB or TCPOBOP for three days. Twenty-four hours after the last dose, one injection of cocaine was given to the animals. Blood was drawn 20 hours after cocaine treatment for determination of serum ALT activity.
Blood was drawn from the eye for determination of serum ALT activity.

CYP3A11 = test: Northern blot of CYP3A11 mRNA in liver; conditions: for induction of CYP311: CAR −/− mice; for induction of murine CYP3A11 mRNA: wild-type mice
Experimental: (§5) At least three mice between about 8–10 weeks old were used for each treatment. Mice were pretreated by intraperitoneal injection with corn oil, PB (100 mg/kg, Sigma), or TCBOPOP (3 mg/kg) for the indicated time. For a three day PB treatment, mice were injected intraperitoneally three times with PB, at one injection per day.

[4] = test system: wild-type and CAR knockout mice; test: APAP toxicity after pretreatment with inducers (serum ALT, histology); type: in vivo, mouse; conditions: APAP 250 mg/kg; for hepatotoxicity, inducer plus APAP: CAR null mice; for liver histology after pretreatment and APAP: wild-type animals; for ALT levels and hepatic necrosis, inducer plus APAP: wild-type, 24 hours
Experimental: as §1
The effect of PB and the potent CAR agonist TCPOBOP on APAP toxicity was examined in wild-type and CAR knockout mice. Both strains of mice were treated with inducers or the vehicle control, followed by 250 mg/kg APAP. For these studies, mice were kept in a pathogen-free animal facility under standard 12 hour light/12 hour dark cycle and fed standard rodent chow and water ad libitum. At least five mice between 8 and 10 weeks old were used in each treatment group. For 3-day PB (100 mg/kg) treatment, mice were injected intraperitoneally three times, one injection per day. TCPOBOP (3 mg/kg) and/or APAP were injected intraperitoneally. Phenobarbital and TCPOBOP were suspended or dissolved in corn oil, and APAP was dissolved in basic PBS (pH=11). PB and APAP were purchased from Sigma (St Louis, Mo.); TCPOBOP was a gift from Dr. Stephen Safe.
as §2

CYP2B10 = test: Northern blot of CYP2B10 mRNA in liver of wild-type and CAR knockout mice
Experimental: as §5
Approximately 20 μg of total RNA from individual mouse livers was subjected to Northern blot analysis (FIG. 1C). A mouse CAR cDNA probe was used to reveal the absence of CAR transcripts in the CAR null mice. Probes for CYP2B10 were prepared by RT-PCR with mouse liver total RNA using Superscript One-step RT-PCR System (Life Technologies).

Clc1cnc(Oc2ccc(Oc3ncc(Cl)cc3Cl)cc2)c(Cl)c1 [TCPOBOP, 1,4-bis[2-(3,5-dichloropyridyloxy)]benzene]
hepatic GSH levels versus vehicle CAR (+/+) and pretreated CAR (−/−) animals (hepatic GSH): significantly different
decrease in hepatic GSH (hepatic GSH): approximately 50%
induction of CYP2B10 mRNA (murine CAR [1]): induction of CYP2B10 mRNA
induction of CYP2B10 mRNA (murine CAR [2]): no response
effect of pretreatment on paralysis (CYP enzyme activity): not affected
duration of zoxazolamine-induced paralysis (CYP enzyme activity; female CAR (+/+) mice): not paralyzed
duration of zoxazolamine-induced paralysis (CYP enzyme activity; female CAR (−/−) mice): died
animals that died (CYP enzyme activity): two animals from each group
duration of zoxazolamine-induced paralysis (CYP enzyme activity; male CAR (+/+) mice): <20 min
duration of zoxazolamine-induced paralysis (CYP enzyme activity; male CAR (−/−) mice): >300 min
effect of pretreatment on duration of paralysis (CYP enzyme activity): significantly decreased the duration of paralysis
evidence of liver damage after cocaine [3]: not observed
serum ALT as acute response to cocaine [3]: significant increase
induction of CYP311 (CYP3A11): negligible level of induction
induction of murine CYP3A11 mRNA (CYP3A11): substantial induction
hepatotoxicity, inducer plus APAP [4]: no such hepatotoxicity
liver histology after pretreatment and APAP [4]: extensive hepatic centrilobular necrosis
ALT levels and hepatic necrosis, inducer plus APAP [4]: strongly elevated ALT levels and hepatic necrosis
induction of expression of CYP2B10 mRNA (CYP2B10; CAR knockout animals): absent
induction of expression of CYP2B10 mRNA (CYP2B10; wild-type male or female mice): robust induction

CCC1(c2ccccc2)C(=O)NC(=O)NC1=O [PB, phenobarbital]
hepatic GSH levels versus vehicle CAR (+/+) and pretreated CAR (−/−) animals (hepatic GSH): significantly different
decrease in hepatic GSH (hepatic GSH): approximately 50%
induction of CYP2B10 mRNA (murine CAR [1]): induction of CYP2B10 mRNA
induction of CYP2B10 mRNA (murine CAR [2]): no response
effect of pretreatment on paralysis (CYP enzyme activity): not affected
duration of zoxazolamine-induced paralysis (CYP enzyme activity; female CAR (+/+) mice): not paralyzed
duration of zoxazolamine-induced paralysis (CYP enzyme activity; female CAR (−/−) mice): died
animals that died (CYP enzyme activity): two animals from each group
duration of zoxazolamine-induced paralysis (CYP enzyme activity; male CAR (+/+) mice): <20 min
duration of zoxazolamine-induced paralysis (CYP enzyme activity; male CAR (−/−) mice): >300 min
effect of pretreatment on duration of paralysis (CYP enzyme activity): significantly decreased the duration of paralysis
evidence of liver damage after cocaine [3]: not observed
serum ALT as acute response to cocaine [3]: significant increase
induction of CYP311 (CYP3A11): negligible level of induction
induction of murine CYP3A11 mRNA (CYP3A11): substantial induction
hepatotoxicity, inducer plus APAP [4]: no such hepatotoxicity
liver histology after pretreatment and APAP [4]: extensive hepatic centrilobular necrosis
ALT levels and hepatic necrosis, inducer plus APAP [4]: strongly elevated ALT levels and hepatic necrosis
induction of expression of CYP2B10 mRNA (CYP2B10; CAR knockout animals): absent
induction of expression of CYP2B10 mRNA (CYP2B10; wild-type male or female mice): robust induction
